For seven compounds, IC50 results are on record in ChEMBL document CHEMBL1132891, “Carbacyclic peptide mimetics as VCAM-VLA-4 antagonists” (Bioorg Med Chem Lett, 2000).

The term IC50 denotes the midpoint of a concentration-inhibition curve. A low value points to higher potency.

The assay has as its target T1, Integrin alpha-4 (Homo sapiens, UniProt P13612).
T1 sequence (P13612 whole entry): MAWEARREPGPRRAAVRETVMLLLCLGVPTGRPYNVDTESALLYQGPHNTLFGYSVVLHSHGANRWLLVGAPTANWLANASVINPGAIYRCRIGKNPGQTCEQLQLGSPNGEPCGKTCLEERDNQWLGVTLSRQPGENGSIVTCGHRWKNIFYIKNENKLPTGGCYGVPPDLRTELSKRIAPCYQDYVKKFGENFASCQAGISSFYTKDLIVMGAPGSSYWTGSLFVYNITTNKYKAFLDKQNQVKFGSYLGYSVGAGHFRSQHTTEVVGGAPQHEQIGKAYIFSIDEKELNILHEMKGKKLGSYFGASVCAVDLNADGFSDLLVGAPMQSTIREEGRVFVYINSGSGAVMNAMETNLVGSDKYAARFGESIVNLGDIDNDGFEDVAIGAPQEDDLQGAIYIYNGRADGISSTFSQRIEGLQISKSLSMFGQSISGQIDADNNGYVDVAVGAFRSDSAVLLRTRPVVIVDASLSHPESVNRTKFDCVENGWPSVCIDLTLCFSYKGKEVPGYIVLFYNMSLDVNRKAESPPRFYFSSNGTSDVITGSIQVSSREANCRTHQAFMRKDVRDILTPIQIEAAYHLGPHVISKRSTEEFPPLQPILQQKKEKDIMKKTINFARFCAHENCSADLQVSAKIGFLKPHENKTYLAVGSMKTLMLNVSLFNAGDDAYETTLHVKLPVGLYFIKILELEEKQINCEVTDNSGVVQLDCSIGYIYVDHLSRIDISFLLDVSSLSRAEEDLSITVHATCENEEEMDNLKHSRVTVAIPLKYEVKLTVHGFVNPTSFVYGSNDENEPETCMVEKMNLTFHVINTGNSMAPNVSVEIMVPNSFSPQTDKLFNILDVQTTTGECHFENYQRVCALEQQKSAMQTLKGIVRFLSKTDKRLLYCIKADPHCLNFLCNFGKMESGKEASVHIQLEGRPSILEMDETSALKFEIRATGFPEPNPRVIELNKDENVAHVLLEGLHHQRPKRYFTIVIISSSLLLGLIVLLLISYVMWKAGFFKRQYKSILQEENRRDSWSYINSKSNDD
As to the kind of experiment: Inhibitory concentration against VLA-4 receptor using human VCAM-VLA-4 binding assay.
The compound `N[C@@H](Cc1ccc(O)cc1)C(=O)NC1CCCC[C@@H](C(=O)O)NC(=O)C2(CCCC2)CCNC1=O` (stereo in doubt; 15a) yielded an IC50 of 89 nM.

On to `N[C@@H](Cc1ccc(O)cc1)C(=O)NC1CCCCC[C@@H](C(=O)O)NC(=O)C2(CCCC2)CCNC1=O` (stereo in doubt; 15b), for which the IC50 worked out at 750 nM.

The compound `N[C@@H](Cc1ccc(O)cc1)C(=O)N/C1=C/CCC[C@@H](C(=O)O)NC(=O)C2(CCCC2)CCNC1=O` yielded an IC50 of 160 nM.

`N[C@@H](Cc1ccc(O)cc1)C(=O)NC1CCCCC[C@@H](C(=O)O)NC(=O)C2(CCCC2)CCNC1=O` (stereo in doubt; 14b) registered an IC50 of 550 nM.

Consider `N[C@@H](Cc1ccc(O)cc1)C(=O)N[C@H]1CSSC[C@@H](C(=O)O)NC(=O)C2(CCCC2)CCNC1=O`, for which the IC50 is 0.5 nM.

`N[C@@H](Cc1ccc(O)cc1)C(=O)N/C1=C/CCCC[C@@H](C(=O)O)NC(=O)C2(CCCC2)CCNC1=O` showed an IC50 of 330 nM.

With `N[C@@H](Cc1ccc(O)cc1)C(=O)NC1CCCC[C@@H](C(=O)O)NC(=O)C2(CCCC2)CCNC1=O` (stereo in doubt; 14a), the IC50 was determined as 44 nM.
